For 82 compounds, AC35 results are on record in PubChem BioAssay AID720588 (Broad Institute, 2013).

“And” between values parts separate entries of the source, which are not always exact repeats. Equal values may be shown once.

This assay concerns HEK293T viability, CellTiter-Glo ATP luminescence, 72 h. Kind of assay: ATP-based viability loss in HEK293T cells – cell-based, CellTiter-Glo luminescence, cherry-pick, set 3, cytotoxicity control, dose response (AID 720588).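 Note: potency for luminescence loss meaning cytotoxic compounds.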 In general terms: ATP-based viability assays read luminescence as a measure of living cells.
`CN(C[C@H]1N[C@@H](CO)[C@@H]1c1ccc(C2=CCCC2)cc1)C(=O)c1ccc(F)cc1`: the AC35 is 5.64 µM.

For the compound `COc1ccc(-c2cc(CNc3nc(NC(C)C)nc4cc(-c5ccccc5)sc34)on2)cc1`, the AC35 was 12.5 µM.

As for `C[C@H](CO)N1C[C@H](C)[C@@H](CN(C)Cc2ccc(C(F)(F)F)cc2)OCCCC[C@H](C)Oc2ccc(NS(=O)(=O)c3ccc(F)cc3)cc2C1=O`, the AC35 was 15.1 µM.

For the compound `O=C1NC(=S)NC(=O)C1=Cc1cccn1-c1ccc(O)cc1`, the AC35 was 19.5 µM.

With `CC(=O)Nc1ccc(S(=O)(=O)Nc2ccc(N3CCCCC3)cc2)cc1`, the AC35 was 22.1 µM.

Turning to `CC(=O)OC1CC(OC2C(O)CC(OC3C(O)CC(OC4CCC5(C)C(CCC6C5CC(O)C5(C)C(C7=CC(=O)OC7)CCC65O)C4)OC3C)OC2C)OC(C)C1OC1OC(CO)C(O)C(O)C1O` (configuration not stated), the AC35 is 0.182 µM.

Turning to `CC(=O)OC1CC(OC2C(O)CC(OC3C(O)CC(OC4CCC5(C)C(CCC6C5CCC5(C)C(C7=CC(=O)OC7)CCC65O)C4)OC3C)OC2C)OC(C)C1OC1OC(CO)C(O)C(O)C1O` (configuration not stated), the AC35 was 0.0583 µM.

Turning to `CC(=NNc1ccc2ccccc2n1)c1ccccn1`, the AC35 is 1.12 µM.

Turning to `C[C@@H]1CN([C@H](C)CO)C(=O)c2cc(NC(=O)Nc3ccccc3)ccc2O[C@@H]1CN(C)Cc1ccc(C(=O)Nc2ccccc2N)cc1`, the AC35 was 12.7 µM.

As to `O=c1cc(-c2ccccc2)oc2ccc3ccccc3c12`, the AC35 is 1.57 µM.

On to `CN1c2ccc(-c3ccc(C#N)cc3)cc2[C@H]2[C@H](CCN2S(=O)(=O)c2cccc(F)c2)[C@H]1CO`, for which the AC35 was 13.4 µM.

Consider `CCc1ccc(/C=C2\SC(=S)N(CCCC(=O)N3CCN(C)CC3)C2=O)cc1`, for which the AC35 was 17.6 µM.

With `BrC(=C\c1ccccc1)/C=N/n1cnnc1`, the AC35 is 17.8 µM.

Consider `C[C@H]1CN([C@@H](C)CO)C(=O)c2cc(NS(=O)(=O)c3ccc(Cl)cc3)ccc2O[C@H]1CN(C)Cc1ccc(Cl)c(Cl)c1`, for which the AC35 was 16.5 µM.

On to `CCN1C/C(=C/c2ccc(N3CCOCC3)cc2)C(=O)/C(=C/c2ccc(N3CCOCC3)cc2)C1`, for which the AC35 is 9.96 µM.

For the compound `COc1ccc(NC(=S)N=Nc2c(O)[nH]c3ccccc23)cc1`, the AC35 is 7.54 µM.

With `CN1C2CCC1/C(=C/c1ccccn1)C(=O)/C2=C\c1ccccn1`, the AC35 is 1.1 µM.

In the case of `O=c1[nH]c(=O)n([C@H]2C[C@H](O)[C@@H](CO)O2)cc1F`, the AC35 was 5.28 µM.

As for `C[C@@H]1CN([C@H](C)CO)C(=O)c2cc(C#CCN(C)C)cnc2O[C@H]1CN(C)Cc1ccc(-c2ccccc2)cc1`, the AC35 is 12.4 µM.

As to `CN(Cc1cnc2nc(N)nc(N)c2n1)c1ccc(C(=O)N[C@@H](CCC(=O)O)C(=O)O)cc1`, the AC35 is 0.0442 µM and 0.0275 µM.

As to `COc1cccc(-c2cc(NC=O)c3ncc(-c4ccc(C(C)=O)cc4)n3c2)c1`, the AC35 is 8.98 µM.

For the compound `Cc1ccc(/C=N/Nc2ccnc3cc(Cl)ccc23)c(C)c1`, the AC35 was 10.6 µM.

With `CN1c2ccc(-c3ccc(C#N)cc3)cc2[C@H]2[C@H](CCN2S(=O)(=O)c2cccc(F)c2)[C@@H]1CO`, the AC35 was 23.4 µM.

For `Nc1nc(N)c(-c2cccc(C(F)(F)F)c2)c(Cc2cccc(C(F)(F)F)c2)n1`, the AC35 was 8.95 µM.

Take `Nc1nc2cc3c(cc2cc1C(=O)NCCc1c[nH]c2ccccc12)OCO3`: the AC35 is 5.04 µM.

In the case of `C/C(=N\Nc1cccc2cccnc12)c1ccccn1`, the AC35 was 11.8 µM.

`OCC1OC(n2ccc3c2ncn2ncnc32)C(O)C1O` (configuration not stated): the AC35 was 14.6 µM.

On to `C[C@]12CCC3C(CCC4=CC(O)CC[C@@]43/C=N/O)C1(O)CCC2C1=CC(=O)OC1` (some centres not stated), for which the AC35 is 0.694 µM.

Consider `C[C@@H]1O[C@@H](O[C@H]2C[C@@H](O)[C@]3(CO)[C@@H]4C(CC[C@]3(O)C2)[C@@]2(O)CC[C@H](C3COC(=O)C3)[C@@]2(C)C[C@H]4O)[C@H](O)[C@H](O)[C@H]1O` (some centres not stated), for which the AC35 is 2.43 µM.

On to `O=c1c2ccccc2nc(/C=C/c2cc(Br)ccc2O)n1CCCO`, for which the AC35 was 14.4 µM.

In the case of `Cc1cc(-c2nc3cc(F)ccc3s2)ccc1N`, the AC35 is 16.9 µM.

On to `CC(C)(C)c1ccc(/C=N/Nc2ccc(C(=O)O)cc2)cc1`, for which the AC35 was 16.5 µM.

On to `CCc1nc(N)nc(N)c1-c1ccc(Cl)c(N=[N+]=[N-])c1`, for which the AC35 is 8.98 µM.

`S=c1[nH]nc(-c2cc(-c3ccccc3)n[nH]2)n1/N=C/C(Br)=C/c1ccccc1`: the AC35 was 12.4 µM.

Regarding `CC(=O)OC1CC(OC2C(O)CC(OC3C(O)CC(OC4CCC5(C)C(CCC6C5CCC5(C)C(C7=CC(=O)OC7)C(O)CC65O)C4)OC3C)OC2C)OC(C)C1OC1OC(CO)C(O)C(O)C1O` (configuration not stated), the AC35 is 0.58 µM.

For the compound `CC(=O)Oc1ccc(-c2ccc(C(=O)Nc3cccc(S(=O)(=O)N4CCOCC4)c3)cc2)cc1`, the AC35 was 0.274 µM.

Consider `CC12CCC(O)CC1CCC1C2CCC2(C)C(C3=CC(=O)OC3)CCC12O` (configuration not stated), for which the AC35 was 0.375 µM.

Turning to `C[C@H]1CN([C@@H](C)CO)S(=O)(=O)c2ccc(C#Cc3ccncc3)cc2O[C@@H]1CN(C)C(=O)Nc1ccc2c(c1)OCO2`, the AC35 is 2.99 µM.

Regarding `CC(C)N1C/C(=C/c2cccnc2)C(=O)/C(=C/c2cccnc2)C1`, the AC35 is 18.7 µM.

For the compound `O=C1NC(=O)N(Cc2ccccc2)C(=O)/C1=C\C=C\c1ccco1`, the AC35 is 12.9 µM.

`C(=N\Nc1nc2ccccc2[nH]1)/c1ccccn1`: the AC35 was 6.22 µM.

In the case of `COc1ccc(Cn2cc3c(-c4ccc(F)cc4)nnc-3c3cc(OC)c(OC)cc32)cc1`, the AC35 was 10.2 µM.

For the compound `C=CC[n+]1c(-c2ccc(C)cc2)csc1Nc1ccc(NC(C)=O)cc1`, the AC35 was 12.5 µM.

As to `C/C(=N\NC(=O)c1n[nH]c2c1CCC2)c1cccs1`, the AC35 is 10.8 µM.

In the case of `C[C@@H]1O[C@@H](O[C@@H]2C=C3CCC4C(CC[C@]5(C)[C@@H](c6ccc(=O)oc6)CC[C@]45O)[C@@]3(C)CC2)[C@H](O)[C@H](O)[C@H]1O` (some centres not stated), the AC35 is 0.0201 µM.

Turning to `O=C1NC(=O)N(c2ccccc2)C(=O)/C1=C\C=C\c1ccccc1`, the AC35 is 19.1 µM.

For the compound `CC(=NNc1cc(C)c2ccccc2n1)c1ccccn1`, the AC35 is 2 µM.

On to `O=C(C[C@H]1C[C@H]2c3cc(NS(=O)(=O)c4ccc(F)cc4)ccc3O[C@H]2[C@H](CO)O1)NCc1ccc(Oc2ccccc2)cc1`, for which the AC35 was 16 µM.

For `Cc1ccc(S(=O)(=O)Nc2ccc3c(c2)C(=O)N([C@H](C)CO)C[C@H](C)[C@@H](CN(C)Cc2ccc(C(F)(F)F)cc2)OCCCC[C@H](C)O3)cc1`, the AC35 was 8.51 µM.

With `C(=Cc1cnc2ccccc2n1)c1ccc2c(c1)OCO2`, the AC35 was 5.29 µM.

As to `COc1ccccc1-c1ccc(OCCCN2CCC(C(O)(c3ccccc3)c3ccccc3)CC2)cc1`, the AC35 is 10.3 µM.

Regarding `COc1ccc(S(=O)(=O)N2CC[C@@H]3[C@@H](CO)Nc4ccc(-c5ccc(C#N)cc5)cc4[C@@H]32)cc1`, the AC35 is 16.5 µM.

As to `CCCCc1c(Cc2ccccc2)ncn1CCc1ccccc1OC`, the AC35 was 20.7 µM.

For the compound `CC(=O)OC1CC2(O)C3CCC4CC(O)CCC4(C)C3CCC2(C)C1C1=CC(=O)OC1` (configuration not stated), the AC35 was 0.262 µM.

As for `COC1C(O)C(C)OC(OC2C(Oc3cccc4c(O)c5c(=O)oc6ccc(C)c7c(=O)oc(c34)c5c67)OC(C)C(O)C2O)C1O` (configuration not stated), the AC35 was 15.1 µM.

Take `CCOc1cc(/C=N/Nc2cc(C)nc(-n3nc(C)cc3C)n2)ccc1O`: the AC35 is 4.12 µM.

On to `N#CC(=C1C=CC(=NO)C(Cl)=C1)c1ccccc1`, for which the AC35 is 11.2 µM.

For `C=C(C(=O)c1ccccc1)C(C(=C)C(=O)c1ccccc1)c1ccc(OC)cc1`, the AC35 was 5.68 µM.

`COC(=O)Cc1[nH]n(-c2nc3ccccc3s2)c(=O)c1C(C)=Nc1ccc(OC)cc1`: the AC35 is 14 µM.

For `COc1cc2c(OC(C)=O)c3c(c(-c4ccc5c(c4)OCO5)c2cc1OC)C(=O)OC3`, the AC35 was 0.964 µM.

Turning to `C[C@@H]1CN([C@H](C)CO)C(=O)c2cccc(N(C)C)c2O[C@@H]1CN(C)Cc1ccc(C(=O)Nc2ccccc2N)cc1`, the AC35 was 11.7 µM.

As to `COc1ccc(-c2cnc3c(NC=O)cc(-c4ccccc4OC)cn23)cc1OC`, the AC35 is 9.05 µM.

`O=C(O)c1ccc(N/N=C/c2ccc3nccnc3c2)cc1`: the AC35 was 11.9 µM.

For the compound `O=C(Nc1ccc2c(c1)OCO2)N1C[C@@H]2N[C@H](C1)C2c1ccc(C=Cc2ccccc2)cc1` (some centres not stated), the AC35 is 9.59 µM.

Turning to `CCc1nc(N)nc(N)c1-c1ccc(Cl)cc1`, the AC35 was 15.9 µM.

Take `Oc1c(Cl)cc(Cl)c(Cl)c1Cc1c(O)c(Cl)cc(Cl)c1Cl`: the AC35 is 11.4 µM.

As to `Cc1ccc(S(=O)(=O)Nc2ccc3c(c2)C(=O)N([C@@H](C)CO)C[C@@H](C)[C@@H](CN(C)Cc2ccc(C(=O)Nc4ccccc4N)cc2)O3)cc1`, the AC35 is 7.11 µM.

On to `Cc1ccc(C)c(S(=O)(=O)N2CCN(c3ncnc4sccc34)CC2)c1`, for which the AC35 was 4.95 µM.

Consider `COc1cccc(-c2cccc(-c3nc(C(=O)NCC(F)(F)F)cc4c3[C@H](CCO)N([S@@](=O)C(C)(C)C)C4)c2)c1`, for which the AC35 was 23.5 µM.

Turning to `O=C1Nc2cc(C(=O)NCCN3CCCCCC3)ccc2S/C1=C\c1ccccc1`, the AC35 was 11.7 µM.

Take `Cc1cccc(/C=C(\c2nc3ccccc3[nH]2)S(=O)(=O)c2ccccc2)c1`: the AC35 is 8.44 µM.

`CCN(Cc1ccccc1)c1ccc(/C=N/N=C(N)N)cc1`: the AC35 was 13.2 µM.

With `Cc1ccc(C(=O)O/N=C(\N)c2ccccn2)cc1`, the AC35 is 14.9 µM.

For the compound `CC(C)(C)C(=O)Cn1ncc(Cl)c(Cl)c1=O`, the AC35 is 14.8 µM.

On to `COc1ccc(OC)c(Cc2cnc3nc(N)nc(N)c3c2C)c1`, for which the AC35 was 0.151 µM.

For `CCCCCCCCCCCCCCCCCCNc1ccn(C2OC(COP(=O)(O)OCC3OC(n4cc(F)c(=O)[nH]c4=O)CC3O)C(O)C2O)c(=O)n1` (configuration not stated), the AC35 is 6.6 µM.

Regarding `O=C(c1nnsc1S(=O)c1ccc(Cl)cc1)N1CCOCC1` (configuration not stated), the AC35 is 5.6 µM.

For `C=C1C(=O)O[C@@H]2[C@H]1[C@@H](OC(=O)/C(C)=C/C)C/C(C)=C\C(=O)/C=C(\C)[C@@H]2O`, the AC35 was 7.47 µM.

Turning to `COc1ccccc1NC(=O)N1CCCCN2[C@H](CO)[C@H](c3ccc(-c4cccc(C)c4)cc3)[C@H]2C1`, the AC35 is 10.4 µM.

Consider `C[C@H](CO)N1C[C@H](C)[C@H](CN(C)Cc2ccc(Oc3ccccc3)cc2)Oc2ccc(NC(=O)Cn3cnnn3)cc2CC1=O`, for which the AC35 is 15.5 µM.

On to `C=C(C(=O)c1ccccc1)C(C)C(=C)C(=O)c1ccccc1`, for which the AC35 is 5.24 µM.

With `N#CC(C#N)=C1C=CC=CN1/C(=C\c1ccco1)C(=O)c1ccc(Cl)cc1`, the AC35 is 3.47 µM.
